Experimental data published in EP0238198A2, “Method of modifying the lipid structure function and expression of cell membranes and pharmaceutical compositions for use therein” (Habib, Nagy Adly, priority 1986, dated 1987).

Experiments:
[1] = test system: three cancer cell lines from bladder, testis and hepatoma (liver cancer); test: clonogenic assay with three cancer cell lines; type: cell-based; parameters: inhibition of cell division: dose or concentration left out as unconfirmed
Description: In vitro studies have been conducted using a clonogenic assay utilising three cancer cell lines from bladder, testis and hepatoma (liver cancer), incubating the cells for two weeks with saturated fatty acids. The control cells were incubated without any addition. The control cells grew during this time period and formed multiple colonies, as was expected.

D261 Rat hepatoma = test: tumour cell colony inhibition test (clonogenic assay); type: cell-based; conditions: for Mean no colonies ± SE: 5 days, medium control 33.0±5.1
Description: (§1) Cells from rat mammary carcinoma (Sp 22), primary rat fibroblasts (from alveolar tissue) and four rat hepatoma cell lines (D23, D261, D262A and D262B) were studied.
(§2) The method used for rat cells was as follows: 200 cells were plated per dish in 1 ml 'Eagles' methionine enriched medium (MEM) + 10% newborn calf serum (NBCS) in 30 mm culture dishes and incubated for four hours at 37°C. All became firmly adherent during this initial incubation. […] Dilutions containing 20 µg/ml, […], 200 ng/ml and 2 ng/ml were prepared, 1 ml of each dilution was added to four dishes of cells, the final concentration being half the concentration of the material added. […] To control dishes 1 ml of MEM + NBCS was added, or 1 ml of MEM + NBCS + 1% ethanol. The dishes were incubated for 5 days. Medium was then removed, and the cell colonies were rinsed with 0.9% W/V NaCl solution and fixed for 15 minutes with methanol. Cell colonies were stained with 1% aqueous crystal violet and the dishes were allowed to dry.

D262B Rat hepatoma = test: as above; type: cell-based; conditions: for Mean no colonies ± SE: 5 days, medium control 37.0± 4.0
Description: as §1, §2

[2] = test system: Sp22 Rat mammary carcinoma; test: as above; type: cell-based; conditions: for Mean no colonies ± SE: 5 days, medium control 61.0±6
Description: as §1, §2

[3] = test system: 833K (non-seminomatous testicular germ cell tumour); test: as above; type: cell-based, human
Description: as §1
(§3) The human tumour cell lines were investigated as follows: 500 exponentially-growing RTl12 (transitional cell carcinoma of the bladder) cells or two hundred 833K (non-seminomatous testicuLar.germ cell tumour) cells were plated in 5 cm dishes in RPMI1640 medium supplemented with 5% foetal calf serum and 2 mM 1-glutamine. […] Following a further 14 days incubation colonies were fixed, stained and counted. Colony-forming efficiency of the treated cells was expressed as a proportion of that in the controls. The experiments were repeated three times to permit statistical analysis.

[4] = test system: RT112 (transitional cell carcinoma of the bladder); test: as above; type: cell-based, human
Description: as §1, §3

[5] = Rattus norvegicus, 120 h, read-out: % colony formation relative to medium control
[6] = Homo sapiens, 833K, 336 h, read-out: Colony-forming ability (± standard error)
[7] = summary of Table 3, dose-related response
[8] = Homo sapiens, RT-112, 336 h, read-out: Colony-forming ability (± standard error)

With CCCCCCCCCCCCCCCCCC(=O)O [stearic acid, octadecanoic acid] the “cell division (colony formation)” value ([1]; incubation for two weeks, inhibition related to dose) was “failed to divide”, the “inhibition of cell division” value ([1]; two weeks) was “complete inhibition of cell division” and the activity at 1 µg/mL (D261 Rat hepatoma; [5]) was 64.5%. For the same molecule, the activity at 10 µg/mL (D261 Rat hepatoma; [5]) was 54.5%, the activity at 50 µg/mL (D261 Rat hepatoma; [5]) was 18.1% and the “inhibition of colony formation” value (D261 Rat hepatoma; dose of 10 µg/ml) was “significant inhibition of colony formation”. For the same molecule, the “Mean no colonies ± SE” value (D261 Rat hepatoma; stearic acid 1μg/ml) was 21.0±3.0, the “Mean no colonies ± SE” value (D261 Rat hepatoma; stearic acid 10 μg/ml) was 18.0±1.5 and the “Mean no colonies ± SE” value (D261 Rat hepatoma; stearic acid 50 μg/ml) was 6.0±3.0. For the same molecule, the activity at 0.1 µg/mL (D262B Rat hepatoma; [5]) was 111%, the activity at 1 µg/mL (D262B Rat hepatoma; [5]) was 83.8% and the activity at 10 µg/mL (D262B Rat hepatoma; [5]) was 67.6%. For the same molecule, the activity at 50 µg/mL (D262B Rat hepatoma; [5]) was 48.6%, the “inhibition of colony formation” value (D262B Rat hepatoma; dose of 10 µg/ml) was “significant inhibition of colony formation” and the “Mean no colonies ± SE” value (D262B Rat hepatoma; stearic acid 100 ng/ml) was 41.0± 1.8. For the same molecule, the “Mean no colonies ± SE” value (D262B Rat hepatoma; stearic acid 1μg/ml) was 31.0± 5.8, the “Mean no colonies ± SE” value (D262B Rat hepatoma; stearic acid 10 μg/ml) was 25.0± 2.8 and the “Mean no colonies ± SE” value (D262B Rat hepatoma; stearic acid 50 μg/ml) was 18.0± 4.5. For the same molecule, the activity at 0.001 µg/mL [2, 5] was 83%, the activity at 0.01 µg/mL [2, 5] was 91% and the activity at 0.1 µg/mL [2, 5] was 86%. For the same molecule, the activity at 1 µg/mL [2, 5] was 93%, the activity at 10 µg/mL [2, 5] was 96% and the activity at 50 µg/mL [2, 5] was 84%. The “Mean no colonies ± SE” value ([2]; stearic acid 1ng/ml) was 54.0±10, the “Mean no colonies ± SE” value ([2]; stearic acid 10 ng/ml) was 55.7±3 and the “Mean no colonies ± SE” value ([2]; stearic acid 100 ng/ml) was 52.5±6. The “Mean no colonies ± SE” value ([2]; stearic acid 1µg/ml) was 56.7±3, the “Mean no colonies ± SE” value ([2]; stearic acid 10 µg/ml) was 58.7±1 and the “Mean no colonies ± SE” value ([2]; stearic acid 50 µg/ml) was 51.2±6. The “inhibition of colony development” value ([2]; summary of Table 2) was “failed to inhibit”, the activity at 1 µg/mL [3, 6] was 81.5% and the activity at 2 µg/mL [3, 6] was 70.4%. The activity at 4 µg/mL [3, 6] was 27.5%, the activity at 6 µg/mL [3, 6] was 0.9% and the activity at 8 µg/mL [3, 6] was 0%. The activity at 10 µg/mL [3, 6] was 0%, the “inhibition of colony formation” value [3, 7] was “inhibited colony formation” and the activity at 1 µg/mL [4, 8] was 92%. For the same molecule, the activity at 2 µg/mL [4, 8] was 86%, the activity at 4 µg/mL [4, 8] was 45% and the activity at 6 µg/mL [4, 8] was 4.6%. For the same molecule, the activity at 8 µg/mL [4, 8] was 0.3%, the activity at 10 µg/mL [4, 8] was 0% and the “inhibition of colony formation” value [4, 7] was “inhibited colony formation”.
